The test system of the experiment is β2 : β1 receptors. Kind of experiment: cardioselectivity, β2:β1 ratio (pulmonary versus cardiac effect, guinea pig trachea versus atria). The experiment is classed as cell-based. Particulars: ratio of pulmonary (β2) to cardiac (β1) effect; over 1 = cardioselective. The text has this:
Expressed in different terms, a smaller amount of a compound of the invention is required to block isoproterenol-induced elevation in heart rate than is required to block the isoproterenol-induced relaxation of the bronchi. This cardioselectivity factor can be expressed as the ratio of ED50 for pulmonary effect (β2):ED50 for cardiac effect (β1). Where the β2 :β1 ratio is over 1, then the compound would be considered to have cardioselective activity.

Turning to `COc1ccc(CCNC[C@H](O)COc2ccc(-c3nccs3)cc2)cc1OC` [Example 2, (S) 2-p-[3-(3,4-Dimethoxyphenylethyl)amino-2-hydroxypropoxy]phenyl thiazole], the “β2 :β1” value was determined as 813.

For `COc1ccc(CCNCC(O)COc2ccc(-c3ncco3)cc2)cc1OC` (stereo not drawn) [Example 1, 2-p-[3-(3,4-Dimethoxyphenethylamino)-2-hydroxypropoxy]phenyl oxazole], the “β2 :β1” value came out at 19.

On to `OC(CNC1CC1)COc1ccc(-c2nccs2)cc1` (stereo not drawn) [Example 3, 2-[p-(3-Cyclopropylamino-2-hydroxypropoxy)phenyl]thiazole], for which the “β2 :β1” value came to 85.

Source of the values: patent publication US4735961A, “Oxazoles and thiazoles containing an aminohydroxypropoxyphenyl moiety” (Merck & Co., Inc., priority 1985, dated 1988).
